Test results published in patent publication US20040009168A1, “Multidose antibody formulation” (priority 2002, published 2004).
Entries after “also recorded” stand apart in the source; their conditions may differ.

Experiments:
[1] = system: formulated humanized monoclonal antibody; test: Differential scanning calorimetry (DSC), denaturation temperature; assay type: physicochemical; conditions: initial time point, t0
Procedure: (§1) The compatibility of six parenteral preservatives (benzyl alcohol, chlorobutanol, methyl paraben, propyl paraben, phenol, and m-cresol) with the formulated humanized monoclonal antibody was tested. The preservatives were added to the formulated antibody based on their commonly used concentration ranges in marketed multidose products (3). Protein aggregation was suspected to be the primary degradation pathway. Preliminary evaluation of the preservatives was done initially by DSC and after 2 days of incubation at 50° C. by visual inspection for appearance and by SEC for soluble aggregates.
A decrease in the denaturation temperature reflects a destabilizing effect of the preservative on formulation stability. The denaturation temperature (Tm) of the sample was measured using the Pyris 1 differential scanning calorimeter (Perkin Elmer). A sample volume of 50 μL was taken from a 10 mg/mL protein sample and sealed in a stainless steel pan. The sample was held at 32° C. for 2 minutes, and heated to 100° C. at the rate of 10° C./min.

[2] = system: formulated humanized monoclonal antibody; test: Stability and bioactivity of the protein formulated with 0.75% benzyl alcohol, monitored over time; assay type: physicochemical
[3] = system: formulated humanized monoclonal antibody; test: Visual analysis of the antibody formulation with preservative; assay type: physicochemical; conditions: for Visual analysis: after 2 days at 50° C.
Procedure: as §1

[4] = system: antigen expressed on human T cells; test: Potency testing by FACS binding assay (flow cytometry); conditions: 1 week at 45 ° C.
Procedure: (§2) Because of the results seen in the preliminary evaluation, additional analyses were done using lower concentrations of the preservatives.
The biological activity (potency) of the protein was measured by flow cytometry, based on the binding of the antibody antigen expressed on human T cells.

[5] = system: Escherichia coli, Staphylococcus aureus, Pseudomonas aeruginosa, Candida albicans, and Aspergillus niger; test: USP and EP/BP preservative efficacy tests; assay type: cell-based; conditions: 0.75% benzyl alcohol
Procedure: (§3) In the unmodified USP/EP preservative efficacy tests, each microorganism is tested separately at a concentration of ˜10^5 cfu/mL. […] The preservative efficacy test was modified in this study to reduce the total sample requirement and cost per analysis. Although the bacterial and fungal strains were not tested individually at specified concentrations, by comparing the overall bacterial and fungal log reduction values with the regulatory requirements, an assessment is made of the efficacy of the preservative against these microorganisms.
The antimicrobial efficacy of the preservative was monitored by the USP and EP/BP preservative efficacy tests.

[6] = system: Escherichia coli, Staphylococcus aureus, Pseudomonas aeruginosa; test: Preservative screening test (modified USP/EP preservative efficacy test), bacteria; assay type: cell-based; conditions: for b-coefficient, Bacterial LR: ± 95% confidence limits; for Bacterial × 10^4 (cfu/mL): 1 week at 25 ° C., total bacterial count 8.78 × 10^4 cfu/mL
Procedure: (§4) The efficacy of the preservative against various microorganisms was measured using a modified USP/EP preservative efficacy test. These tests were conducted at Microconsult Inc. (Dallas, Tex.). In the procedure, formulations were tested against the following microorganisms: Escherichia coli, Staphylococcus aureus, Pseudomonas aeruginosa, Candida albicans, and Aspergillus niger. The three bacterial strains were inoculated together at a total concentration of ˜10^5 cfu/mL, and the two fungi were inoculated together at a total concentration of ˜10^5 cfu/mL. Samples were incubated for 7 days at room temperature (25° C.), and the total bacterial and fungal counts were measured using a colony counter. The log reduction (LR) values for the bacterial and fungal counts were calculated as log (initial count/final count).
as §3
(§5) The formulations were prepared by adding the preservatives at the desired concentrations as per the I-optimal design table (Table II), generated using the software Strategy (Experiment Strategies Foundation & Process Builder, Inc.). All samples were incubated at 37° C. for 9 weeks. Because protein aggregation was known to be the primary degradation pathway, protein stability was examined by SEC and right-angle light scattering to monitor the formation of soluble and insoluble aggregates, respectively, and by UV spectroscopy to monitor changes in the protein concentration. The biological activity of the samples was assessed after 1 month at 37° C. Furthermore, to assess the antimicrobial efficacy of the formulations, samples were examined by the preservative screening test at the initial time point. Samples were incubated at room temperature, and the aerobic plate counts were measured based on the minimum requirements of the USP and BP/EP preservative efficacy tests at 24 hours, 7 days, and 14 days.

[7] = system: formulated humanized monoclonal antibody; test: Size-exclusion chromatography (SEC), monomer content; assay type: physicochemical; conditions: for Monomer (%): 1 week at 45 ° C.; for Percent monomer (by SEC): after 2 days at 50° C.
Procedure: as §1, §2
The monomer content, soluble aggregates, and clips due to hydrolysis were monitored by size-exclusion chromatography. The analytical system employed consisted of an HPLC pump (Perkin Elmer, Series 410) and an autosampler (Perkin Elmer, ISS 2000) connected to a diode array detector (Perkin Elmer, 235C). Two size-exclusion chromatography columns (Tosohaas TSK-Gel, G3000SWXL,), connected in tandem, were used for sample separation. The composition of the mobile phase was 200 mM KPO4, 150 mM NaCl, pH 6.9. Samples were diluted to 1 mg/mL and a sample volume of 40 μL was injected for analysis. The flow rate was 1.0 mL/min, and detection was at 220 and 280 nm.

[8] = system: Candida albicans, and Aspergillus niger; test: Preservative screening test (modified USP/EP preservative efficacy test), fungi; assay type: cell-based; conditions: for Fungi × 10^5 (cfu/mL): 1 week at 25 ° C., total fungal count 2.84 × 10^5 cfu/mL
Procedure: as §4, §3, §5

[9] = preservative 0.5%, listed as benzyl alcohol
[10] = main effect of the preservative (bi)
[11] = preservative 0.75%, listed as benzyl alcohol
[12] = quadratic term of one preservative (bii)
[13] = single preservative, 0.75% benzyl alcohol

OCc1ccccc1 [Benzyl alcohol, benzyl alcohol]
Tm (by DSC) ([1]; preservative 0.5%): 78.5 °C | Tm (by DSC) ([1]; preservative 1.0%): 75.8 °C | Tm (by DSC) ([1]; preservative 2%): 72.3 °C | protein stability compared with the control formulation [2]: comparable to that of the control formulation | antibody precipitation ([3]; benzyl alcohol at high concentration such as 1.0%): causes antibody precipitation | Visual analysis ([3]; preservative 0.5%): Clear | Visual analysis [3, 9]: clear | Visual analysis ([3]; preservative 1.0%): Slightly cloudy | Visual analysis ([3]; preservative 2%): caused sample precipitation; also recorded: Precipitated | Potency (%) ([4]; preservative 0.1%): 81% | Potency (%) ([4]; preservative 0.5%): 75% | Potency (%) ([4]; preservative 0.75%): 74% | USP and EP/BP regulatory requirements [5]: USP and EP/BP (criterion B only) regulatory requirements were satisfied | antimicrobial efficacy against bacteria (regression analysis, in words) ([6]; I-optimal design, 14 days at room temperature): statistically significant antimicrobial efficacy | b-coefficient, Bacterial LR [6, 10]: 1.04 ± 0.05 | Bacterial × 10^4 (cfu/mL) ([6]; preservative 0.1%): TNTC | Bacterial × 10^4 (cfu/mL) ([6]; preservative 0.5%): 0 × 10^4 cfu/mL | Bacterial × 10^4 (cfu/mL) [6, 9]: complete kill | Bacterial × 10^4 (cfu/mL) ([6]; preservative 0.75%): 0 × 10^4 cfu/mL | Bacterial × 10^4 (cfu/mL) [6, 11]: complete kill | b-coefficient, Bacterial LR [6, 12]: −0.68 ± 0.11 | log reduction value predicted by simulation, bacteria [6, 13]: 4.8 | Stability by SEC (in words) ([7]; 7 days at 45° C.): unstable due to the formation of soluble aggregates | aggregation (in words) ([7]; benzyl alcohol at high concentrations (≧1.0%)): caused significant aggregation | Monomer (%) ([7]; preservative 0.1%): 97.65% | Monomer (%) ([7]; preservative 0.5%): 93.92% | Percent monomer (by SEC) ([7]; preservative 0.5%): 92.3% | Percent monomer (by SEC) [7, 9]: ~92% | Monomer (%) ([7]; preservative 0.75%): 87.97% | Percent monomer (by SEC) ([7]; preservative 1.0%): 13.4% | antimicrobial efficacy against fungi (in words) ([8]; 7 days, at least 0.5% benzyl alcohol, parabens and chlorobutanol at their highest concentration): satisfactory | b-coefficient, Fungal LR [8, 10]: 0.51 | Fungi × 10^5 (cfu/mL) ([8]; preservative 0.1%): 12 × 10^5 cfu/mL | Fungi × 10^5 (cfu/mL) ([8]; preservative 0.5%): 0 × 10^5 cfu/mL | Fungi × 10^5 (cfu/mL) [8, 9]: complete kill | Fungi × 10^5 (cfu/mL) ([8]; preservative 0.75%): 0 × 10^5 cfu/mL | Fungi × 10^5 (cfu/mL) [8, 11]: complete kill | b-coefficient, Fungal LR [8, 12]: −0.46 | log reduction value predicted by simulation, fungi [8, 13]: 3.7
